Results on 7 molecules are retold here after ChEMBL document CHEMBL4765227, “Hit to lead optimization of a series of N-[4-(1,3-benzothiazol-2-yl)phenyl]acetamides as monoacylglycerol lipase inhibitors with potential anticancer activity” (Eur J Med Chem, 2016).

In assay [1] the target is T1, Monoglyceride lipase (Homo sapiens, UniProt Q99685).
T1 sequence (Q99685 whole entry): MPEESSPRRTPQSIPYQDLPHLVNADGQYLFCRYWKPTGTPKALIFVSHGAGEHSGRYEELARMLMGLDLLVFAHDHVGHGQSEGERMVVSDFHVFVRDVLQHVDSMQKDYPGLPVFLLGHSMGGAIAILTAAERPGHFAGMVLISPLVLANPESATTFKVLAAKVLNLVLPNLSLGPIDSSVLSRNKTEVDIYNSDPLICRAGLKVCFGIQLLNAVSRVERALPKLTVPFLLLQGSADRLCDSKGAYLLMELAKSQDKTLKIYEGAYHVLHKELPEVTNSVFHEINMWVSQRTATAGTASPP
The assay can be described thus: Inhibition of human MAGL.

The target in assay [2] is T1, Monoglyceride lipase. Kind of assay: Inhibition of human MAGL transfected in human HEK293T cells assessed as reduction in ABPP binding by competitive binding assay. In kind it is cell-based.
Assay [3] has as its target T1, Monoglyceride lipase. Kind of assay: Inhibition of MAGL (unknown origin).
Assay [4] concerns the target T1, Monoglyceride lipase. Kind of assay: Inhibition of human MAGL using 4-Nitrophenylacetate as substrate.

Bounds are passed on as bounds.

The IC50 is the concentration that inhibits the measured activity by half.

`O=C(N1CCC(C(c2ccc3c(c2)OCO3)c2ccc3c(c2)OCO3)CC1)n1cncn1` came in with an IC50 on Monoglyceride lipase [1] below 0.4 nM.

With `O=C(OC(C(F)(F)F)C(F)(F)F)N1CCC(C(O)(c2ccc3c(c2)OCO3)c2ccc3c(c2)OCO3)CC1`, the IC50 at Monoglyceride lipase [2] was 5.9 nM.

On to `CCCCNC(=O)Oc1ccc(C2=NCCS2)cc1`, for which the half-inhibitory concentration (IC50) against Monoglyceride lipase [3] turned out to be 31 µM.

As to `O=C(CNc1ccc([N+](=O)[O-])cc1)Nc1ccc(-c2nc3ccccc3s2)cc1`, at Monoglyceride lipase [4], the 50% inhibitory concentration (IC50) was above 100000 nM.

Molecule `CN(C)C(=O)n1nnc(Cc2ccc(-c3ccccc3)cc2)n1` yielded an IC50 on Monoglyceride lipase [3] of 0.0009 µM.

As for `COc1nn(-c2ccc(NC(=O)OCc3ccccc3)c(C)c2)c(=O)o1`, the IC50 at Monoglyceride lipase [4] is 424 nM.

Regarding `O=C(Nc1cccc(-c2ccccc2)c1)OC1CCCCC1`, the IC50 against Monoglyceride lipase [3] was 28 µM.
